What was measured:
[1] = tested on: dermal fibroblast collagen and glycosaminoglycan synthesis; assay: Stimulation of dermal fibroblast collagen and glycosaminoglycan synthesis (Sirius red, Safranin O, Alcian blue staining); format: cell-based, Human
Method: Human foreskin dermal fibroblasts were cultured in DMEM+10% FCS+Penicillin G (100 unit/ml)/Streptomycin (100 ug/ml)+Glutamine (2 mM)+Sodium pyruvate (0.1 mM) (C-medium) under humidifying atmosphere containing 5% CO2 at 37° C.
5×10^4 cells were plated into each well of 48 multiwell plate. Three to four days later, the cells reached confluency. The medium was replaced with fresh C-medium with or without H2O2 containing 25 ug/ml vitamin C with herbal preparations, Genistein or vitamin A. After treatment for 7 days, the cells were fixed with 10% formalin in saline, and stained with Sirius red, Safranin O or Alcian blue (at pH2.5 for hyaluronic acid staining). The relative amount of extracellular matrix deposition was estimated by visual comparison of the intensity and area of the respective stains.
At the end of treatments, the cells were washed twice with PBS, and were irradiated by UV (365 nm) at 20 mJ/cm^2 in PBS. Fresh serum free medium was replaced, and the cells were fixed and stained 24 hours later.

[2] = Radical scavenging activity examined by DPPH; format: biochemical; details: 0.1 mM DPPH, 30 minutes
Method: Herbal preparations with the designated final concentrations was mixed with 0.1 mM DPPH (2,2-diphenyl-1-picrylhydrazyl), incubated at room temperature in dark for 30 minutes. Absorbance at 517 nm was read by Varian Cary 50 Tablet UV-Visible Spectrophotometer. Vitamin C and vitamin E served as positive controls.

O=c1c(-c2ccc(O)cc2)coc2cc(O)cc(O)c12 [Genistein]
effect on collagen and glycosaminoglycan synthesis (words, Table 3) ([1]; 10 μM, in the presence of 0.1 mM H2O2): did not show significant effect
effect on collagen and glycosaminoglycan synthesis (words, Table 2) ([1]; 10 uM, without H2O2): did not show significant effect

O=C1O[C@H]([C@@H](O)CO)C(O)=C1O [Vit. C, Vitamin C]
% DPPH radical scavenging ([2]; 0.001 mM): 75.0%
% DPPH radical scavenging ([2]; 0.01 mM): 99.3%

Vitamin A
activity on collagen and glycosaminoglycan synthesis (words, FIG. 2) ([1]; 1 μM, in the presence of 0.05 mM H2O2): did not show significant activity
activity on collagen and glycosaminoglycan synthesis compared to control (words, FIG. 1) ([1]; 1 μM, without H2O2): did not show significant activity
effect on collagen and glycosaminoglycan synthesis (words, Table 5) ([1]; 10 μM, UV 365 nm at 20 mJ/cm^2): did not show significant effect
effect on collagen and glycosaminoglycan synthesis (words, Table 4) ([1]; 10 μM, no UV): did not show significant effect

vitamin E [Vit. E]
% DPPH radical scavenging ([2]; 0.01 mM): 70.1%
% DPPH radical scavenging ([2]; 0.1 mM): 86.8%

Reference: US20090291156A1, “HERBAL COMPOSITION FOR SKIN CARE” (SAGITTARIUS LIFE SCIENCE CORP., priority 2008, published 2009)
